Holding throughout (assay type): in vivo, rat
One experiment deals with TGFα mRNA. The experiment can be described thus: In situ hybridization of TGFα mRNA after nigral 6-OHDA lesion and/or striatal TGFα infusion. Particulars: unilateral nigral 6-OHDA lesion. The source says:
(§1) Adult male Sprague-Dawley rats weighing 250-300 grams were obtained from Simonsen (Gilroy, Calif.) and assigned to one of five treatment groups: (1) striatal TGFα infusion, nigral 6-OHDA lesion (hereafter, “lesion”); (2) TGFα infusion, no lesion; (3) artificial cerebrospinal (aCSF) infusion, lesion; (4) aCSF infusion, no lesion; (5) no infusion, no lesion. Four to eight animals were used per experimental group. The animals were monitored after each surgical procedure until fully recovered and maintained at all other times in a temperature and humidity controlled vivarium.
(§2) Rats were anesthetized with 8 mg xylazine and 100 mg ketamine per kilogram body weight. […] The success and extent of 6-OHDA lesions were monitored by tyrosine hydroxylase (TH) mRNA in situ hybridization in the midbrain. TH is the rate-limiting enzyme in the dopamine synthetic pathway and is a common marker for dopamine-producing neurons. One animal with an incomplete lesion (retaining significant numbers of nigral TH-IR cells) was excluded from the study and is not included in the total number of animals.
(§3) Osmotic minipumps (model 2002, Alzet, Inc.) were implanted four to five weeks post-lesion. […] The minipump itself was placed subcutaneously in the interscapular region.
(§4) At the end of the infusion period, animals were sacrificed by decapitation. Their brains were quickly removed, frozen in isopentane at −20° C., and stored at −70° C. Coronal cryostat sections were cut at 20 μm and thaw-adhered to Vectabond™ (Vector Labs, Inc.) coated slides in ordered anterior-to-posterior rows. The sections were postfixed with 4% paraformaldehyde in 0.1 M phosphate buffer (pH 7.4) for one hour, rinsed in phosphate buffer and air dried. Sections were stored with desiccant at −20° C. until processed.
TGFα mRNA probes were generated from a 550 nucleotide XbaI/BamHI cDNA fragment from the 5′ end of rat TGFα subcloned into pGEM 7Zf (Promega, Inc.). Antisense and sense probes were transcribed with SP6 and T7 polymerases, respectively. […]

The subject of another experiment is EGF receptor mRNA. The experiment can be described thus: In situ hybridization of EGF receptor mRNA after nigral 6-OHDA lesion and/or striatal TGFα infusion.
Text: as §1, §2, §3, §4
TGFα mRNA probes were generated from a 550 nucleotide XbaI/BamHI cDNA fragment from the 5′ end of rat TGFα subcloned into pGEM 7Zf (Promega, Inc.). Antisense and sense probes were transcribed with SP6 and T7 polymerases, respectively. Rat EGF receptor mRNA probes were produced from a 718 base pair BamHI/SphI insert from the 5′ end of the gene in pGEM 7Zf. Probes for rat TH were created using the 1.2 kb BamHI/EcoRI fragment subcloned into pGEM 7Zf. Antisense subclones for EGF receptor and TH were transcribed with T7 polymerase. Sense subclones for EGF receptor and TH were transcribed with SP6 polymerase. All probes were radiolabeled by transcription in the presence of [^35S]UTP (NEN Research Products, Inc.).
In situ nucleic acid hybridization was performed according to the method described by Simmons et al. 1989, supra). Parallel sections from experimental and control animals were hybridized overnight at 65° C. with sense or antisense probes at a concentration of 10^7 cpm/ml.

The test system of experiment [1] is neural precursor cells of the subependymal zone. The experiment can be described thus: Periventricular cellular expansion and striatal ridge formation (thionin, silver staining, immunohistochemistry). The note with it: midstriatal EGF infusion 0.5 μg/day, lesioned animals. The protocol: Adult male Sprague-Dawley rats weighing 250-300 grams were used throughout the study. Twenty-four animals received standard midstriatal infusions of rat TGFα (0.5 μg/day; Sigma Chemical Co.). Another 26 rats received either artificial cerebrospinal fluid (“aCSF”) or no infusion. A subset of animals in the standard TGFα infusion group and the control group received stereotaxic 6-OHDA injections into the substantia nigra 48 hours after the infusions were begun. Animals used in this portion of the study were classified into six groups according to their infusion-lesion combination, as follows: TGFα infusion, lesion (n=13); TGFα infusion, no lesion (n=11); aCSF infusion, lesion (n=12); aCSF infusion, no lesion (n=9); no infusion, lesion (n=1); no infusion, no lesion (n=4).
Additional animals received TGFα infusions into other regions of striatum, the lateral ventricle, cerebral cortex, or the septum. Four more animals (two per group) received midstriatal TGFα infusions at one-half or one-tenth the standard dose. Also, two animals received midstriatal infusions of epidermal growth factor (EGF) instead of TGFα. The EGF administered in these rats was at the standard 0.5 μg/day dose. All of the animals in these extra groups were lesioned. Rats in all of the experiments were typically perfused one to 16 days postlesion (3-18 days of infusion). […] Brain sections were prepared and stained using various immunocytochemical and histochemical techniques.
Rats were anesthetized with 8 mg xylazine and 100 mg ketamine/kg. Infusions of TGFα were provided up to 18 days by Alzet osmotic minipump (2002). The minipumps were filled to about 200 μl with either aCSF for control animals or 20 μg TGFα in 400 μl of aCSF (50 μg/ml) for experimental animals. Under sterile conditions, the infusion cannula was positioned to stereotaxic coordinates (+1.2 A/P; +2.7 M/L; −6.0 D/V) based on Bregma (Paxinos and Watson, The Rat Brain in Stereotaxic Coordinates, Academic Press, San Diego, 1986) and cemented to the top of the skull with dental cement. The infusate was delivered via cannula at approximately 0.5 μl/hour. Some additional control animals received infusions either into the lateral ventricle, the overlying cortex, or other areas.
Forty-eight hours after the minipump implant, rats were anesthetized as above. A chilled 4.8 mg/ml solution of 6-OHDA HCl was prepared immediately prior to injection. […] A 6-8 μl volume was injected at a rate of 1 μl/minute.
Animals were perfused with 500 ml of 4% paraformaldehyde in 0.1 M phosphate buffered saline (PBS; pH 7.4) one to 16 days postlesion and their brains placed into 20% sucrose. The next day, the brains were frozen in isopentane at −20° C. Forty-micron coronal sections were then cut on a freezing microtome into 2% paraformaldehyde in 0.1 M PBS. Continuous sections were taken through the striatum and substantia nigra-VTA. Representative sections were taken through the rest of the brain.
Microtomed brain sections for Nissl staining were mounted onto gelatin-coated slides and allowed to dry overnight. They were then dehydrated and rehydrated through ethanol baths, and placed in Thionin solution for approximately four minutes. The sections were dehydrated through the series of ethanol baths, cleared in successive Histoclear™ washes, and coverslipped. Section were viewed under light microscopy and photographed with Technical Pan Film™ (Kodak, Inc.) at ISO 100 (HC-110 processing for six minutes).
Degenerating fibers and cells of the ridge were labeled using a modification to the Nauta staining method, similar to Procedure I of Fink-Heimer (Giolli and Karamanlidis, In: Neuroanatomical Research Techniques, R. T. Robertson, Ed., pp. 211-240, Academic Press, New York, 1978).

Results on two compounds are retold here after US20010007657A1, “Compositions and methods for manipulating glial progenitor cells and treating neurological deficits” (priority 1997, published 2001).

For the compound `Cl.NCCc1cc(O)c(O)cc1O` [6-OHDA, 6-hydroxydopamine HCl, reference compound], the “contralateral TGFα mRNA hybridization” value with TGFα mRNA is on record as “no effect”. Moreover, in the experiment on TGFα mRNA (several weeks post-lesion), the “reduction of TGFα mRNA hybridization in the ipsilateral striatum” value is 25%. Further, in the experiment with EGF receptor mRNA (6-OHDA lesion, midbrain), the “EGF receptor hybridization in the ipsilateral SN-VTA” value is “abolished”. For the same compound, the “striatal and subependymal EGF receptor hybridization” value with EGF receptor mRNA (6-OHDA lesioned animals compared to normal animals) is “unchanged”.
“EGF: epidermal growth factor, infused midstriatally instead of TGFα at 0.5 μg/day (NSDSECPLSHDGYCLHDGVCMYIEALDKYACNCVVGYIGERCQYRDLKWWELR; Epidermal growth factor; UniProt P01133 971-1023, looked up)”: in experiment [1], the “cellular expansion along the ventricle” value was “induced the cellular expansion along the ventricle” and the “formation of the striatal ridge” value is listed as “did not induce formation of the striatal ridge”.
